Laboratory results reported in patent US8575107B2, “Clusterin derived peptide” (Compugen Ltd., priority 2008, dated 2013).

Assays:
[1] = tested on: MCF-7 breast cancer cell lines; assay: MTT assay, CGEN-CL1 and/or paclitaxel on MCF-7 cells; type: cell-based
Method: (§1) 20 μl of MTT (3-(4,5-Dimethyl-2-thiazolyl)-2,5-diphenyl-2H-tetrazolium bromide) solution (Sigma Cat#M5655, lot#085k5322, 1 gr was dissolved in 200 ml H2O and filtered, giving a final concentration of 5 mg/ml) was added to each well and incubated for 4 hours at 37° C. after which the medium was vacuumed and 100 μl of DMSO was added to each well. Absorbance was measured in an ELISA reader at 492 nm.
(§2) A549, PC3 and MCF7 cells were seeded at 6000, 8000 and 10,000 cells per well respectively in 150 μl of media (DMEM medium+5% FBS) in 96 well plates.
(§3) Paclitaxel (Sigma T7402, Lot. 036k1217, Mw 853.9, 5 mg dissolved in 585 μl DMSO to a stock concentration of 10 mM, stored at −20° C.) and/or CGEN-CL1 (1 mg dissolved in 250 μl of sodium bi-carbonate to a stock concentration of 4 mg/ml) were added to the wells in 25 μl of medium (final volume of 200 μl) as detailed in Table 3. The relative growth was normalized to controls where neither paclitaxel nor CGEN-CL1 was added to wells.
(§4) An MTT assay was performed as described above in Example 2.

[2] = tested on: lung carcinoma cell line A549; assay: MTT assay, CGEN-CL1 and/or paclitaxel on A549 cells; type: cell-based, human; conditions: single agent
Method: as §1, §2, §3, §4

CC(=O)O[C@H]1C(=O)[C@@]2(C)[C@H]([C@H](OC(=O)c3ccccc3)[C@]3(O)C[C@H](OC(=O)[C@H](O)[C@@H](NC(=O)c4ccccc4)c4ccccc4)C(C)=C1C3(C)C)[C@]1(OC(C)=O)CO[C@@H]1C[C@@H]2O [Paclitaxel, reference compound]
Relative Growth ([1]; Paclitaxel 2.25 nM alone): 0.88 | Relative Growth ([1]; Paclitaxel 30.00 nM alone): 0.49 | maximal effect (inhibition) alone [2]: 50%
